{
  "source": "patent US20230093399A1",
  "about": "“METHODS FOR GENERATING PLURIPOTENT STEM CELL-DERIVED BROWN FAT CELLS” (AgeX Therapeutics, Inc., priority 2013, published 2023)",
  "molecules": {"B1": {"name": "BMP7: Bone Morphogenetic Protein 7, TGF-beta superfamily member (protein, UniProt P18075 293-431, looked up)", "Bone morphogenetic protein 7": "STGSKQRSQNRSKTPKNQEALRMANVAENSSSDQRQACKKHELYVSFRDLGWQDWIIAPEGYAAYYCEGECAFPLNSYMNATNHAIVQTLVHFINPETVPKPCCAPTQLNAISVLYFDDSSNVILKKYRNMVVRACGCH"}},
  "key": {"NP110SM cells": {"test_system": "NP110SM cells", "assay": "Differentiation of clonal embryonic progenitor line NP110SM in HyStem beads, Illumina microarray gene expression", "type": "cell-based, human", "conditions": "NP110SM; 10 M CL316243 together with 50 ng/ml BMP4 and 5.0 μM rosiglitazone; FIG. 15 lane 9", "method": "(§1) Differentiation medium is high glucose DMEM (CellGro Cat. No. 15-013-CV) with Pyruvate, 1 mM (Gibco Cat. 11360), Pen:Strep 100U/ml:100 ug/ml (Gibco Cat. No. 504284), Glutamax 2 mM (Gibco Cat. No. 35050), Dexamethasone 0.1 uM (Sigma, St. Louis, Mo., Cat. No. D1756-100), L-Proline 0.35 mM (Sigma Cat. No. D49752), 2-phospho-L-Ascorbic Acid 0.17 mM (Sigma, Cat. No. 49792, Fluka), and ITS Premix (BD, Franklin Lakes, N.J., sterile Cat. No. 47743-628) with a final concentration 6.25 ug/ml insulin, 6.25 ug/ml transferrin, 6.25 ng/ml selenious acid, serum albumin 1.25 mg/ml, 5.35 ug/ml linoleic acid. In various differentiation conditions, the Differentiation medium is supplemented with various growth factors or other differentiation factors as described herein.\nHyStem-C (BioTime, Inc. Alameda, Calif.) is a matrix composed of thiol-modified gelatin and thiolated hyaluronan crosslinked in vivo or in vitro with (polyethylene glycol diacrylate (PEGDA). We observed that clonal human embryonic progenitor cell lines such as those described in the present invention, could be efficiently differentiated in high-density cultures of said crosslinked collagen and hyaluronate in the following manner. HyStem-C® (BioTime, CA, USA) is reconstituted following the manufacturer's instructions. Briefly, the HyStem component (10 mg of thiol-modified hyaluronan) is dissolved in 1.0 ml of degassed deionized water for approximately 20 min to prepare a 1% w/v solution. The Gelin-S® component (10 mg of thiol-modified gelatin (BioTime)) is dissolved in 1.0 ml of degassed deionized water to prepare a 1% w/v solution, and polyethylene glycol diacrylate (10 mg of PEGDA) is dissolved in 0.5 ml of degassed deionized water to prepare a 2% w/v solution. Then, HyStem (1 ml, 1% w/v) is mixed with Gelin-S (1 ml, 1% w/v) immediately before use. Pelleted cells are resuspended in the recently prepared HyStem:Gelin-S (1:1 v/v) mix described above. Upon the addition of the PEGDA cross-linker, the cell suspension, at a final concentration of 2.0×10^7 cells/ml is aliquoted (25 μl/aliquot) into six-well plates (Corning® 3516; VWR, PA, USA) after partial gelation. Following complete gelation (20 min), Differentiation Medium is added to each well. Plates were then placed in a humidified incubator at 37° C. with ambient O2 and 10% CO2, and the cells were fed three-times weekly. At the desired time point, hydrogel constructs were either fixed and processed for immunohistochemical analysis or lysed using RLT (Qiagen, CA, USA) with 1% beta-mercaptoethanol for total RNA to analyze transcript expression using quantitative real-time PCR (qRT-PCR) and/or whole-genome microarray.\n(§2) Total RNA was extracted directly from cells growing in 6-well plates or 10 cm tissue culture dishes using Qiagen RNeasy mini kits according to the manufacturer's instructions. RNA concentrations were measured using a Beckman DU530 or Nanodrop spectrophotometer and RNA quality was determined by denaturing agarose gel electrophoresis or using an Agilent 2100 bioanalyzer. Whole-genome expression analysis was carried out using Illumina Human Ref-8v3 or Human HT-12 v4 BeadArrays, and RNA levels for certain genes were confirmed by qRT-PCR. For the Illumina BeadArrays, total RNA was linearly amplified and biotin-labeled using Illumina TotalPrep kits (Life Technologies, Temecula, Calif., USA), and cRNA was quality-controlled using an Agilent 2100 Bioanalyzer. The cRNA was hybridized to Illumina BeadChips, processed, and read using a BeadStation array reader according to the manufacturer's instructions (Illumina, San Diego, Calif., USA). Values of less than 120 relative fluorescence units (RFUs) were considered as nonspecific background signal.\nThe line NP110SM was then exposed to differentiation in the BAT cell differentiation protocols described herein. […]"}, "cell line E3": {"test_system": "cell line E3", "assay": "Differentiation of clonal hEP cell line E3 in HyStem beads, Illumina microarray gene expression", "type": "cell-based, human", "method": "as §1\n(§3) The Gelin-S® component (10 mg of thiol-modified gelatin (BioTime)) is dissolved in 1.0 ml of degassed deionized water to prepare a 1% w/v solution, and polyethylene glycol diacrylate (10 mg of PEGDA) is dissolved in 0.5 ml of degassed deionized water to prepare a 2% w/v solution. Then, HyStem (1 ml, 1% w/v) is mixed with Gelin-S (1 ml, 1% w/v) immediately before use. Pelleted cells are resuspended in the recently prepared HyStem:Gelin-S (1:1 v/v) mix described above. Upon the addition of the PEGDA cross-linker, the cell suspension, at a final concentration of 2.0×10^7 cells/ml is aliquoted (25 μl/aliquot) into six-well plates (Corning® 3516; VWR, PA, USA) after partial gelation. Following complete gelation (20 min), Differentiation Medium is added to each well. Plates were then placed in a humidified incubator at 37° C. with ambient O2 and 10% CO2, and the cells were fed three-times weekly. At the desired time point, hydrogel constructs were either fixed and processed for immunohistochemical analysis or lysed using RLT (Qiagen, CA, USA) with 1% beta-mercaptoethanol for total RNA to analyze transcript expression using quantitative real-time PCR (qRT-PCR) and/or whole-genome microarray.\nas §2"}, "cell line E72": {"test_system": "cell line E72", "assay": "Differentiation of cell line E72 in HyStem, gene expression", "type": "cell-based, human", "conditions": "E72 passage 11; HyStem-C supplemented with 1.0 uM all-trans retinoic acid", "method": "HyStem-C (BioTime, Inc. Alameda, Calif.) (BioTime, Alameda, Calif., USA) was reconstituted following the manufacturer's instructions. Briefly, the HyStem component (thiol modified hyaluronan, 10 mg) was dissolved in 1.0 ml degassed deionized water for about 20 minutes to prepare a 1% w/v solution. The Gelin-S component (thiol modified gelatin, 10 mg) was dissolved in 1 ml degassed deionized water to prepare a 1% w/v solution, and PEGDA (PEG diacrylate, 10 mg) was dissolved in 0.5 ml degassed deionized water to prepare a 2% w/v solution. HyStem (1 ml, 1% w/v) was mixed with Gelin-S (1 ml, 1% w/v) immediately before use. Pelleted cells were resuspended in recently prepared HyStem:Gelin-S (1:1 v/v) mix described above. Upon the addition of crosslinker PEGDA, the cell suspension, at a final concentration of 2.0×10^7 cells/ml, was aliquoted at 25 μl aliquot four to five times into each well of 6 well plates (Corning 3516) after partial gelation to form attached beads. Following complete gelation (20 minutes), chondrogenic medium was added to each well (i.e about 4 ml/each well of a 6 well plate). […]\nThe Gelin-S® component (10 mg of thiol-modified gelatin (BioTime)) is dissolved in 1.0 ml of degassed deionized water to prepare a 1% w/v solution, and polyethylene glycol diacrylate (10 mg of PEGDA) is dissolved in 0.5 ml of degassed deionized water to prepare a 2% w/v solution. […] At the desired time point, hydrogel constructs were either fixed and processed for immunohistochemical analysis or lysed using RLT (Qiagen, CA, USA) with 1% beta-mercaptoethanol for total RNA to analyze transcript expression using quantitative real-time PCR (qRT-PCR) and/or whole-genome microarray.\nTotal RNA was extracted directly from cells growing in 6-well plates or 10 cm tissue culture dishes using Qiagen RNeasy mini kits according to the manufacturer's instructions. RNA concentrations were measured using a Beckman DU530 or Nanodrop spectrophotometer and RNA quality was determined by denaturing agarose gel electrophoresis or using an Agilent 2100 bioanalyzer. […] The cRNA was hybridized to Illumina BeadChips, processed, and read using a BeadStation array reader according to the manufacturer's instructions (Illumina, San Diego, Calif., USA)."}, "[1]": {"test_system": "Bone marrow-derived mesenchymal stem cells (MSCs)", "assay": "Differentiation of bone marrow-derived MSCs in HyStem-C beads, FABP4 expression", "type": "cell-based", "conditions": "14 days, 50 ng/mL BMP2, or 10 ng/mL BMP4, or 100 ng/mL BMP7", "method": "as §3"}},
  "data": [
    {"molecule": "C[C@H](Cc1ccc2c(c1)OC(C(=O)[O-])(C(=O)[O-])O2)NC[C@H](O)c1cccc(Cl)c1.[Na+].[Na+]", "note": "[CL316243, reference compound]", "values": [
      {"measurement": "UCP1 expression", "setting": "NP110SM cells", "result": "appeared to further increase"}
    ]},
    {"molecule": "O=C(Nc1ccncc1)c1cc([N+](=O)[O-])ccc1Cl", "note": "[T0070907, reference compound]", "values": [
      {"measurement": "C19ORF80 expression", "setting": "cell line E3; HyStem with 10 ng/ml BMP4 plus T0070907, compared to HyStem BMP4 alone, cell line not restated", "result": "decreased C19ORF80 expression"},
      {"measurement": "THRSP expression", "setting": "cell line E3; presence of the PPARγ antagonist T0070907, FIG. 7, cell line not restated", "result": "decreased to nearly undetectable levels"}
    ]},
    {"molecule": "CC1=C(/C=C/C(C)=C/C=C/C(C)=C/C(=O)O)C(C)(C)CCC1", "note": "[all-trans retinoic acid, reference compound]", "values": [
      {"measurement": "expression of HOXB6, a marker of lateral plate mesenchyme", "setting": "cell line E72", "result": "induced the expression of HOXB6"}
    ]},
    {"molecule": "CN(CCOc1ccc(CC2SC(=O)NC2=O)cc1)c1ccccn1", "note": "(stereo not drawn) [rosiglitazone, reference compound]", "values": [
      {"measurement": "ADIPOQ transcript expression", "setting": "cell line E3; E3, HyStem beads with 1.0 μM rosiglitazone, FIG. 3", "result": "> 5,000 RFUs"},
      {"measurement": "UCP1 transcript expression", "setting": "cell line E3; E3, HyStem beads, 1.0 μM rosiglitazone in combination with 100 ng/ml BMP7, values greater than 160 RFUs above background", "result": 161, "unit": "RFUs"}
    ]},
    {"molecule": "B1", "values": [
      {"measurement": "PCK1 transcript expression", "setting": "cell line E3; E3, HyStem beads with 10 ng/ml BMP4 or 100 ng/ml BMP7, FIG. 5", "result": "relatively high levels"},
      {"measurement": "expression of C19ORF80", "setting": "cell line E3; E3, HyStem supplemented with 100 ng/ml BMP7", "result": "highest expression"},
      {"measurement": "differentiation into adipocytes as evidenced by expression of FABP4", "setting": "[1]", "result": "caused the differentiation of the cells into adipocytes"}
    ]}
  ]
}
